These results are taken from patent US10639284B2, “Immunomodulator compounds” (CHEMOCENTRYX, INC., priority 2016, dated 2020).

Chain of human PD-L1 / Human PD-1 (Q9NZQ7 19-239): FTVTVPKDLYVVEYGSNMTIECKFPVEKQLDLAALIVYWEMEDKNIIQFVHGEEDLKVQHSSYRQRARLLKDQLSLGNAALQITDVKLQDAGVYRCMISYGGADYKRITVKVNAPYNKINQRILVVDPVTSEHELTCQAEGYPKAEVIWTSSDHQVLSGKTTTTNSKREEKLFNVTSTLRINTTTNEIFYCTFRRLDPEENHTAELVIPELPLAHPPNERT

In this experiment the target is human PD-L1 / Human PD-1 (Homo sapiens (Human), UniProt Q9NZQ7). Nature of the experiment: Enzyme-Linked Immunosorbent Assay (ELISA), PD-1/PD-L1 binding. As to conditions: Table 2; plate-coated human PD-L1, biotinylated human PD-1; read-out: ELISA IC50. On the procedure:
Plates were coated with 1 μg/mL of human PD-L1 (obtained from R&D) in PBS overnight at 4° C. The wells were then blocked with PBS containing 2% BSA in PBS (W/V) with 0.05% TWEEN-20 for 1 hour at 37° C. The plates were washed 3 times with PBS/0.05% TWEEN-20 and the samples were diluted to 1:5 in dilution medium in the ELISA plates. Human PD-1 and biotin 0.3 μg/mL (ACRO Biosystems) were added and incubated for 1 hour at 37° C. then washed 3 times with PBS/0.05% TWEEN-20. A second block was added with PBS containing 2% BSA in PBS (W/V)/0.05% TWEEN-20 for 10 min at 37° C. and was washed 3 times with PBS/0.05% TWEEN-20. Streptavidin-HRP was added for 1 hour at 37° C. then washed 3 times with PBS/0.05% TWEEN-20. TMB substrate was added and reacted for 20 min at 37° C. A stop solution (2 N aqueous H2SO4) was added. The absorbance was read at 450 nm using a micro-plate spectrophotometer.
Compounds in Table 2 and Table 3 were prepared by methods as described in the Examples, and evaluated according to the assay below.
The term IC50 denotes the midpoint of a concentration-inhibition curve. On to `N#Cc1cncc(COc2cc(OC3CCc4c(-c5ccccc5)cccc43)c(Cl)cc2CN[C@@H](CO)C(=O)O)c1` (stereo partly drawn) [Example 1.001], for which the IC50 is < 100 nM.
Next, `N#Cc1cncc(COc2cc(OC3CCc4c(-c5ccccc5)cccc43)c(Cl)cc2CNC[C@@H](O)CC(=O)O)c1` (stereo partly drawn) [Example 1.002]: 100 to 500 nM; `N#Cc1cncc(COc2cc(OC3CCc4c(-c5ccccc5)cccc43)c(Cl)cc2CNCc2nnn[nH]2)c1` (stereo not drawn) [Example 1.003]: < 100 nM.
In the case of `N#Cc1cncc(COc2cc(OC3CCc4c(-c5ccccc5)cccc43)c(Cl)cc2CNCCO)c1` (stereo not drawn) [Example 1.004], the IC50 is < 100 nM.
Turning to `N#Cc1cncc(COc2cc(OC3CCc4c(-c5ccccc5)cccc43)c(Cl)cc2CN2CCCC[C@H]2C(=O)O)c1` (stereo partly drawn) [Example 1.005], the IC50 was < 100 nM.
`N#Cc1cncc(COc2cc(OC3CCc4c(-c5ccccc5)cccc43)c(Cl)cc2CN2CCC2)c1` (stereo not drawn) [Example 1.006]: the IC50 fell in the range of 100 to 500 nM.
Next, `N#Cc1cncc(COc2cc(OC3CCc4c(-c5ccccc5)cccc43)c(Cl)cc2CN2CC(O)C2)c1` (stereo not drawn) [Example 1.007]: 100 to 500 nM; `N#Cc1cncc(COc2cc(O[C@@H]3CCc4c(-c5ccccc5)cccc43)c(Cl)cc2CNC[C@@H](O)CC(=O)O)c1` [Example 1.008]: < 100 nM.
As for `N#Cc1cncc(COc2cc(O[C@H]3CCc4c(-c5ccccc5)cccc43)c(Cl)cc2CNC[C@@H](O)CC(=O)O)c1` [Example 1.009], the figure is < 100 nM; as for `N#Cc1cncc(COc2cc(O[C@H]3CCc4c(-c5ccccc5)cccc43)c(Cl)cc2CNCCn2nn[nH]c2=O)c1` [Example 1.010], 100 to 500 nM; as for `O=C(O)[C@H](CO)NCc1cc(Cl)c(OC2CCc3c(-c4ccccc4)cccc32)cc1OCc1cccnc1` (stereo partly drawn) [Example 1.011], 500 to 20000 nM.
Next, `CC(C)(O)CNCc1cc(Cl)c(O[C@H]2CCc3c(-c4ccccc4)cccc32)cc1OCc1cncc(C#N)c1` [Example 1.012]: 500 to 20000 nM.
With `CC(C)(CNCc1cc(Cl)c(O[C@H]2CCc3c(-c4ccccc4)cccc32)cc1OCc1cncc(C#N)c1)C(=O)O` [Example 1.013], the IC50 lay in the range of 500 to 20000 nM.
On to `N#Cc1cncc(COc2cc(O[C@H]3CCc4c(-c5ccccc5)cccc43)c(Cl)cc2CNCC2CCC(=O)N2)c1` (stereo partly drawn) [Example 1.014], for which the IC50 lay in the range of 100 to 500 nM.
For `N#Cc1cncc(COc2cc(O[C@H]3CCc4c(-c5ccccc5)cccc43)c(Cl)cc2CNCc2ccn[nH]2)c1` [Example 1.015], the IC50 fell in the range of 500 to 20000 nM.
Next, `N#Cc1cncc(COc2cc(O[C@H]3CCc4c(-c5ccccc5)cccc43)c(Cl)cc2CN2CC(O)C2)c1` [Example 2.001]: 100 to 500 nM.
As for `N#Cc1cncc(COc2cc(O[C@H]3CCc4c(-c5ccccc5)cccc43)c(Cl)cc2CN[C@@H](CO)C(=O)O)c1` [Example 2.002], the figure is < 100 nM.
As for `N#Cc1cncc(COc2cc(O[C@H]3CCc4c(-c5ccccc5)cccc43)c(Cl)cc2CN2CC(C(=O)O)C2)c1` [Example 2.003], the figure is < 100 nM; as for `N#Cc1cncc(COc2cc(O[C@H]3CCc4c(-c5ccccc5F)cccc43)c(Cl)cc2CN[C@@H](CO)C(=O)O)c1` [Example 2.004], < 100 nM.
As for `N#Cc1cncc(COc2cc(O[C@H]3CCc4c(-c5ccccc5Cl)cccc43)c(Cl)cc2CN[C@@H](CO)C(=O)O)c1` [Example 2.005], the half-maximal inhibitory concentration (IC50) was < 100 nM.
As for `Cc1ccccc1-c1cccc2c1CC[C@@H]2Oc1cc(OCc2cncc(C#N)c2)c(CN[C@@H](CO)C(=O)O)cc1Cl` [Example 2.006], the figure is < 100 nM.
As for `COc1cc(O[C@H]2CCc3c(-c4ccccc4)cccc32)c(Cl)cc1CN[C@@H](CO)C(=O)O` [Example 2.007], the figure is 100 to 500 nM; as for `N#Cc1cncc(COc2cc(O[C@H]3CCc4c(-c5ccc(F)cc5)cccc43)c(Cl)cc2CN[C@@H](CO)C(=O)O)c1` [Example 2.008], 100 to 500 nM.
With `COc1ccccc1-c1cccc2c1CC[C@@H]2Oc1cc(OCc2cncc(C#N)c2)c(CN[C@@H](CO)C(=O)O)cc1Cl` [Example 2.009], the IC50 lay within 500 to 20000 nM.
As for `N#Cc1cncc(COc2cc(O[C@H]3CCc4c(-c5cccc(F)c5)cccc43)c(Cl)cc2CN[C@@H](CO)C(=O)O)c1` [Example 2.010], the figure is < 100 nM; as for `CC(C)Oc1cc(O[C@H]2CCc3c(-c4ccccc4)cccc32)c(Cl)cc1CN[C@@H](CO)C(=O)O` [Example 2.011], 500 to 20000 nM; as for `Cc1cccc(-c2cccc3c2CC[C@@H]3Oc2cc(OCc3cncc(C#N)c3)c(CN[C@@H](CO)C(=O)O)cc2Cl)c1` [Example 2.012], 500 to 20000 nM.
Next, `COc1ccc(-c2cccc3c2CC[C@@H]3Oc2cc(OCc3cncc(C#N)c3)c(CN[C@@H](CO)C(=O)O)cc2Cl)cc1` [Example 2.014]: 100 to 500 nM; `COc1cccc(-c2cccc3c2CC[C@@H]3Oc2cc(OCc3cncc(C#N)c3)c(CN[C@@H](CO)C(=O)O)cc2Cl)c1` [Example 2.015]: < 100 nM; `N#Cc1cncc(COc2cc(O[C@H]3CCc4c(-c5ccc(Cl)c(Cl)c5)cccc43)c(Cl)cc2CN[C@@H](CO)C(=O)O)c1` [Example 2.016]: 500 to 20000 nM.
As for `N#Cc1cncc(COc2cc(O[C@H]3CCc4c(-c5ccccc5F)cccc43)c(Cl)cc2CNC23CC(C2)C3)c1` [Example 2.017], the figure is 500 to 20000 nM.
As to `N#Cc1cncc(COc2cc(O[C@H]3CCc4c(-c5ccccc5F)cccc43)c(Cl)cc2CN2CC(O)(C(=O)O)C2)c1` [Example 2.018], the IC50 fell in the range of 100 to 500 nM.
As for `N#Cc1cncc(COc2cc(O[C@H]3CCc4c(-c5ccccc5F)cccc43)c(Cl)cc2CN2CC[C@@H](O)C2)c1` [Example 2.019], the figure is < 100 nM; as for `N#Cc1cncc(COc2cc(O[C@H]3CCc4c(-c5ccccc5F)cccc43)c(Cl)cc2CN2CC[C@H](O)C2)c1` [Example 2.020], 100 to 500 nM; as for `COc1ccc(-c2cccc3c2CC[C@@H]3Oc2cc(OCc3cncc(C#N)c3)c(CN[C@@H](CO)C(=O)O)cc2Cl)cc1OC` [Example 2.021], 500 to 20000 nM.
Next, `N#Cc1cncc(COc2cc(O[C@H]3CCc4c(-c5ccccc5F)cccc43)c(Cl)cc2CN2CCC(O)(C(=O)O)C2)c1` (stereo partly drawn) [Example 2.022]: < 100 nM.
Next, `COc1ccc(-c2cccc3c2CC[C@@H]3Oc2cc(OCc3cncc(C#N)c3)c(CN[C@@H](CO)C(=O)O)cc2Cl)cc1C` [Example 2.023]: 100 to 500 nM.
Regarding `N#Cc1cncc(COc2cc(O[C@H]3CCc4c(-c5ccc6c(c5)OCCO6)cccc43)c(Cl)cc2CN[C@@H](CO)C(=O)O)c1` [Example 2.024], the IC50 was < 100 nM.
Next, `N#Cc1cncc(COc2cc(O[C@H]3CCc4c(-c5ccccc5F)cccc43)c(Cl)cc2CNCc2cnn[nH]2)c1` [Example 2.025]: 100 to 500 nM; `Cc1cc(-c2cccc3c2CC[C@@H]3Oc2cc(OCc3cncc(C#N)c3)c(CN[C@@H](CO)C(=O)O)cc2Cl)ccc1N(C)C` [Example 2.026]: 500 to 20000 nM; `CN(C)c1cccc(-c2cccc3c2CC[C@@H]3Oc2cc(OCc3cncc(C#N)c3)c(CN[C@@H](CO)C(=O)O)cc2Cl)c1` [Example 2.027]: 500 to 20000 nM.
Next, `COc1cccc(-c2cccc3c2CC[C@@H]3Oc2cc(OCc3cncc(C#N)c3)c(CN[C@@H](CO)C(=O)O)cc2Cl)c1F` [Example 2.028]: < 100 nM.
